Measured values published in the PolyMetriX glass transition set.
± gives the standard deviation of the reports.

| Structure (SMILES) | glass transition temperature [°C] |
| --- | --- |
| *c1ccc(Cc2ccc(N3C(=O)c4ccc(-c5ccc(-c6ccc(-c7ccc(-c8ccc(-c9ccc%10c(c9)C(=O)N(*)C%10=O)cc8)cc7)cc6)cc5)cc4C3=O)cc2)cc1 (repeat unit) | 244.00 |
| *c1ccc(NC(=O)Nc2ccc(NC(=O)Nc3ccc(-c4nc(-c5ccc([N+](=O)[O-])cc5)[nH]c4*)cc3)cc2)cc1 (repeat unit) | 292.00 |
| *Oc1ccc(C2(c3ccc(OC(=O)CCCCCCCCCCC(*)=O)cc3)c3ccccc3-c3ccccc32)cc1 (repeat unit) | 117.00 |
| *C(=O)Nc1ccc(-c2cc(-c3ccccc3)cc(-c3ccc(NC(=O)c4ccc5c(c4)C(=O)N(c4ccc(Oc6cccc7c(N8C(=O)c9ccc(*)cc9C8=O)cccc67)cc4)C5=O)cc3)n2)cc1 (repeat unit) | 295.00 |
| *c1ccc(Cc2ccc(-n3nc(-c4ccccc4)cc3-c3ccc(-c4cc(-c5ccccc5)nn4*)cc3)cc2)cc1 (repeat unit) | 252.00 |
| *c1ccc(Oc2ccc(N3C(=O)c4ccc(Oc5ccccc5Oc5ccc6c(c5)C(=O)N(*)C6=O)cc4C3=O)cc2)cc1 (repeat unit) | 212.00 |
| *c1ccc(Cc2ccc(N3C(=O)C(Cl)=C(Oc4ccc(C(C)(C)c5ccc(OC6=C(Cl)C(=O)N(*)C6=O)cc5)cc4)C3=O)cc2)cc1 (repeat unit) | 172.00 |
| *C(=O)c1ccc2c(c1)C(=O)N(C1CCC(CC3CCC(N4C(=O)c5ccc(*)cc5C4=O)CC3)CC1)C2=O (repeat unit) | 254.00 |
| */C(C)=C(/*)c1ccc([Si](C)(C)C)cc1 (repeat unit) | -5.00 |
| *CC(*)C(=O)OCCCCCCCC (repeat unit) [Poly(n-octyl acrylate) ] | -65 ± 0.6 |
| *Nc1ccc(NC(=O)c2cc(NC(=O)c3ccccc3)cc(C(*)=O)c2)cc1 (repeat unit) | 321.00 |
| *C1C(=O)OC(=O)C1C1C2CC(C(=O)OC(C)CC)C(C2)C1* (repeat unit) | 175.00 |
| *CCCCCC(=O)Nc1ccc(Oc2ccc(NC(=O)CCCCCN3C(=O)c4ccc(C(=O)c5ccc6c(c5)C(=O)N(*)C6=O)cc4C3=O)cc2)cc1 (repeat unit) | 195.00 |
| *Oc1ccc(-c2ccc(OC(=O)c3ccc(-c4ccc(C(*)=O)cc4)cc3-c3ccccc3)cc2)cc1 (repeat unit) | 168.00 |
| *c1ccc(Oc2ccc(-c3ccc(Oc4ccc(N5C(=O)c6cccc(Oc7c(C)cc(Cc8cc(C)c(Oc9cccc%10c9C(=O)N(*)C%10=O)c(C)c8)cc7C)c6C5=O)cc4)cc3)cc2)cc1 (repeat unit) | 259.00 |
| *CC(O)COc1ccc(C(C)(C)c2ccc(OCC(O)COc3ccc(S(=O)(=O)c4ccc(O*)c(C)c4)cc3C)cc2)cc1 (repeat unit) | 117.50 |
| *CNC(=O)OCC(OC(=O)NCc1ccc(C(C)(C)c2ccc(*)o2)o1)c1ccco1 (repeat unit) | 20.00 |
| *CC(*)C(=O)OCC(COC(=O)c1ccccc1)(COC(=O)c1ccccc1)COC(=O)c1ccccc1 (repeat unit) | 48.00 |
| *C(F)(F)C(*)(F)c1c(F)c(F)c(F)c(F)c1F (repeat unit) | 194.00 |
| *CC(*)(C)C(=O)OCCCCCCOc1ccc(OC(=O)c2ccc(OC)c(Br)c2)cc1 (repeat unit) | 51.00 |

| Structure (SMILES) | glass transition temperature [°C] |
| --- | --- |
| *O[Si](*)(C)CCCCCCOC(=O)c1cc(OC(=O)c2ccc(OCCOCCOCCOCCOCCOCCOC)cc2)ccc1OC(=O)c1ccc(OCCOCCOCCOCCOCCOCCOC)cc1 (repeat unit) | -50.00 |
| *O[Si](*)(C)CCCC(=O)OCCO (repeat unit) | -58.00 |
| *CC(*)C(=O)OCCN(CC)c1ccc(/N=N/c2ccc([N+](=O)[O-])cc2Cl)cc1 (repeat unit) | 87.00 |
| *N=P(Cl)(N=P(/N=S(/*)Oc1cccc(-c2ccccc2)c1)(Oc1cccc(-c2ccccc2)c1)Oc1cccc(-c2ccccc2)c1)Oc1cccc(-c2ccccc2)c1 (repeat unit) | 32.00 |
| *c1ccc(-c2sc(-c3cc(SCCCCCCCCCCCC)c(*)s3)cc2SCCCCCCCCCCCC)cc1 (repeat unit) | 65.40 |
| *c1ccc2c(c1)C(=O)N(c1ccc(Oc3ccc(N4C(=O)c5ccc(-c6c(-c7ccccc7)c(-c7ccccc7)c(-c7ccc(Oc8ccc(-c9c(-c%10ccccc%10)c(-c%10ccccc%10)c(*)c(-c%10ccccc%10)c9-c9ccccc9)cc8)cc7)c(-c7ccccc7)c6-c6ccccc6)cc5C4=O)cc3)cc1)C2=O (repeat unit) | 329.00 |
| *Oc1ccc(OC(=O)c2ccc(C(*)=O)cc2Sc2ccc(Cl)cc2)cc1 (repeat unit) | 140.00 |
| *C#Cc1ccccc1C#C[SiH](*)c1ccccc1 (repeat unit) | 71.00 |
| *C(=O)c1ccc2c(c1)C(=O)N(c1ccc(Oc3ccc(N4C(=O)c5ccc(*)cc5C4=O)cc3)cc1)C2=O (repeat unit) | 290.00 ± 28 |
| */C(=C/c1cc(OC)c(/C=C(\c2ccc(F)cc2)c2ccc(-c3ccc(*)cc3)cc2)cc1OC)c1ccc(F)cc1 (repeat unit) | 201.00 |
| *CC(*)C(=O)Nc1ccc(Cl)cc1 (repeat unit) | 76.00 |
| *C(*)F (repeat unit) | 102.00 |
| *Oc1ccc(C(CC)(c2ccccc2)c2ccc(OC(*)=O)cc2)cc1 (repeat unit) | 147.00 |
| *OC(C)CC(*)=O (repeat unit) | 3.40 |
| *c1ccc(Oc2ccc(P(=O)(c3ccccc3)c3ccc(Oc4ccc(-c5cc(*)[nH]n5)cc4)cc3)cc2)cc1 (repeat unit) | 296.00 |
| *c1ccc(-c2nc3cc(-c4ccc5nc(-c6ccccc6)c(-c6ccc(N7C(=O)C8OC9C(=O)N(*)C(=O)C9C8C7=O)cc6)nc5c4)ccc3nc2-c2ccccc2)cc1 (repeat unit) | 230.00 |
| *c1ccc(Sc2cc3c(cc2Sc2ccc(N4C(=O)C5C6C=CC(C7C(=O)N(*)C(=O)C67)C5C4=O)cc2)C(=O)N(CCc2ccccc2)C3=O)cc1 (repeat unit) | 258.00 |
| *C(=O)Nc1ccc(Oc2ccc(NC(=O)c3ccc4c(c3)C(=O)N(c3cccc(P(=O)(c5ccccc5)c5cccc(N6C(=O)c7ccc(*)cc7C6=O)c5)c3)C4=O)cc2)cc1 (repeat unit) | 235.00 |
| *c1ccc(NC(=O)c2cc(NC(=O)c3ccc(OC(C)=O)cc3)cc(C(=O)Nc3ccc(-c4nnc(*)o4)cc3)c2)cc1 (repeat unit) | 280.00 |
| *CCN(CCOC(=O)c1ccc(C(=O)O*)cc1)c1ccc(-c2nc3ccc([N+](=O)[O-])cc3o2)cc1 (repeat unit) | 208.00 |

| Structure (SMILES) | glass transition temperature [°C] |
| --- | --- |
| *CCN(CCOC(=O)c1ccc(C(=O)O*)c(OC)c1)c1ccc(/N=N/c2ccc(/C=C/c3nc4ccc([N+](=O)[O-])cc4n3CC)cc2)cc1 (repeat unit) | 173.00 |
| *CCNC(=O)Nc1ccc(Cc2ccc(NC(=O)NCCOCCO*)cc2)cc1 (repeat unit) | 8.00 |
| *c1ccc(Oc2ccc(Oc3ccc(Oc4ccc(N5C(=O)c6ccc(Oc7ccc(-c8ccc(Oc9ccc%10c(c9)C(=O)N(*)C%10=O)cc8)cc7)cc6C5=O)cc4)cc3)cc2)cc1 (repeat unit) | 208.00 |
| *O[Si](C)(C)CCC/N=C/c1cc(Cc2ccc(O)c(/C=N/CCC[Si](*)(C)C)c2)ccc1O (repeat unit) | -51.62 |
| *CC(*)(C)C(=O)OCCCCCCOc1ccc(C(=O)Oc2ccc3ccc(=O)oc3c2)cc1 (repeat unit) | 102.00 |
| *C/C=C/c1cc(C(C)(C)c2ccc(O)c(/C=C/CC3CC(=O)N(c4ccc(Cc5ccc(N6C(=O)CC(*)C6=O)cc5)cc4)C3=O)c2)ccc1O (repeat unit) | 206.00 |
| *C(=O)Nc1ccc(-c2ccc(NC(=O)c3ccc4c(c3)C(=O)N(c3c(C)cc(C)c(N5C(=O)c6ccc(*)cc6C5=O)c3C)C4=O)cc2C(F)(F)F)c(C(F)(F)F)c1 (repeat unit) | 267.00 |
| *Oc1ccc(NC(=O)c2ccc(C(=O)Nc3ccc(Oc4ccc(C5(c6ccc(*)cc6)C6CC7CC(C6)CC5C7)cc4)cc3)cc2)cc1 (repeat unit) | 264.00 |
| *CCC(=O)NCCCCCCNC(=O)CCS* (repeat unit) | 27.00 |
| *C(=O)Nc1cc(NC(=O)c2ccc3c(c2)C(=O)N(c2cc(-c4nc5ccccc5s4)cc(N4C(=O)c5ccc(*)cc5C4=O)c2)C3=O)cc(-c2nc3ccccc3[nH]2)c1 (repeat unit) | 368.00 |
| *CN1C(=O)c2ccc(C(c3ccc4c(c3)C(=O)N(Cc3nnc(-c5ccc(Oc6ccc(-c7nnc(*)o7)cc6)cc5)o3)C4=O)(C(F)(F)F)C(F)(F)F)cc2C1=O (repeat unit) | 210.00 |
| *c1ccc(Oc2ccc(C(=O)c3ccc(C(=O)c4ccc(Oc5ccc(-c6cc(*)[nH]n6)cc5)cc4)cc3)cc2)cc1 (repeat unit) | 235.00 |
| *C/C(C)=C/C(C)S(*)(=O)=O (repeat unit) | 83.00 |
| *Oc1ccc(NC(=O)c2cc(NC(=O)CCN3C(=O)c4ccccc4C3=O)cc(C(=O)Nc3ccc(*)cc3)c2)cc1 (repeat unit) | 240.00 |
| *OC(COC(=O)c1ccccc1C(*)=O)COc1ccc(/N=N/c2ccc(C#N)cc2)cc1 (repeat unit) | 105.00 |
| *c1ccc(OC(=O)c2ccc(C(=O)Oc3ccc(C4(*)c5ccccc5Oc5ccccc54)cc3)cc2)cc1 (repeat unit) | 252.00 |
| *c1ccc(-c2c(-c3ccc(-c4ccccc4)cc3)cc(-c3ccc(OCCCCCCOc4ccc(-c5cc(-c6ccc(-c7ccccc7)cc6)c(-c6ccc(-n7c(=O)c8cc9c(=O)n(*)c(=O)c9cc8c7=O)cc6)c(-c6ccc(-c7ccccc7)cc6)c5)cc4)cc3)cc2-c2ccc(-c3ccccc3)cc2)cc1 (repeat unit) | 128.50 |
| *c1ccc(Oc2ccc(Oc3ccc(N4C(=O)c5ccc(Oc6ccc(C(c7ccccc7)(c7ccccc7)c7ccc(Oc8ccc9c(c8)C(=O)N(*)C9=O)cc7)cc6)cc5C4=O)cc3)c(C(C)(C)C)c2)cc1 (repeat unit) | 229.00 |
| *SC(C)C(*)=O (repeat unit) | 12.00 |
